According to patent US20260256135A1, “SOLVENT COMPOSITION FOR AGROCHEMICAL FORMULATIONS” (SPECIALTY OPERATIONS FRANCE, priority 2023, published 2026):

Experiment: Test 1: maximal solubility of an active (solo) in a solvent system, visual observation
Format: physicochemical
Details: active dissolved in the solvent system; limpid with the naked eye
Description: The maximal solubility of an active or a combo of actives in a solvent system is characterized by visual observation. At a given concentration, if the mixture is limpid (with the naked eye), the active ingredient(s) is (are) considered to be soluble in the solvent system at this concentration. However, if a sedimentation of the active ingredient(s) appears, it is not soluble anymore in the solvent system and the maximal solubility is reached. The maximal solubility is thus defined as the maximum amount of active ingredient(s) that can be dissolved in the solvent system, equal to the amount at which the mixture remains limpid (with the naked eye). Each active ingredient or combo is added little by little in different solvent systems. The solutions are magnetically stirred until complete dissolution. Then an additional amount of active ingredient is added and this operation is repeated until the last part of active ingredient added could not be dissolved anymore, taking care to stir the solution after each addition of active ingredient.

maximal solubility of Difenoconazole | maximal solubility of Picoxystrobin | maximal solubility of Pinoxaden | Compound
44.5 g/100 g of solvent | 27.3 g/100 g of solvent | 11.4 g/100 g of solvent | CCCCOC(=O)CCC(C)=O [GFbio ReSolv 200, n-butyl levulinate]
65.5 g/100 g of solvent | 43.9 g/100 g of solvent | 13.0 g/100 g of solvent | COC(=O)C(C)CCC(=O)N(C)C (stereo not drawn) [Rhodiasolv ® Polarclean, methyl-5-(dimethylamino)-2-methyl-5-oxopentanoate]
